Data on one molecule can be found in patent US10888547B2, “Amorphous and a crystalline form of genz 112638 hemitartrate as inhibitor of glucosylceramide synthase” (Genzyme Corporation, priority 2009, dated 2021).

Where two headings read alike, the source gives them in different places.

The test system of one data set is GM1 in K562 cells. Briefly: Flow cytometry of cell surface GM1 in intact cells. In kind it is cell-based. The settings on record: for IC50: Homo sapiens. The source says: Since […] the first and rate-limiting step in the biosynthesis of glycosphingolipids, a flow cytometry assay that measured cell surface levels of GM 1 and GM3 was used to indirectly assess the activity of the inhibitor in intact cells.

Data set [1] has as its target T1, glucosylceramide synthase (Homo sapiens, UniProt Q16739).
T1 construct: microsomes were prepared from human melanoma A375 cells by sonication and centrifugation; endogenous in cells; host or cells: human melanoma A375 cells (microsomes)
T1 sequence (Q16739 1-394): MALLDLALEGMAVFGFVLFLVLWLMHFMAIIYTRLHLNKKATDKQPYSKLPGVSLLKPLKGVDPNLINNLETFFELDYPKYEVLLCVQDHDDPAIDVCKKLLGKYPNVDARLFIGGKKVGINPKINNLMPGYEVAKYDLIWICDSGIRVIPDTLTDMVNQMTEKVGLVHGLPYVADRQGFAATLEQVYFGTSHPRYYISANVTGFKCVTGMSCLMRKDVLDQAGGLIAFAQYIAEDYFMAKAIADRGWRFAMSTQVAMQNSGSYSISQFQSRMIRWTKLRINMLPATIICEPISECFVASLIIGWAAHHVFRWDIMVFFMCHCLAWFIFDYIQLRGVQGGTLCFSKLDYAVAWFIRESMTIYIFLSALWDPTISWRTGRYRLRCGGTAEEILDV
As to the kind of experiment: Glucosylceramide synthase inhibition in microsomes from human melanoma A375 cells. It is filed as biochemical. How it is done: An alternative assay for activity measured inhibition of glucosylceramide synthase in human cell derived microsomes. In this assay, microsomes were prepared from human melanoma A375 cells by sonication and centrifugation. […] Following the incubation, fluorescently labeled glucosylceramide and unreacted ceramide were separated and quantitated by reverse-phase HPLC and fluorescence detection.

In data set [2] the target is T2, Non-lysosomal glucosylceramidase (GBA2) (Homo sapiens, UniProt Q9HCG7).
T2 construct: were assayed in intact human cells using C6-NBD-glucosylceramide as substrate; endogenous in cells
T2 sequence (Q9HCG7 1-927): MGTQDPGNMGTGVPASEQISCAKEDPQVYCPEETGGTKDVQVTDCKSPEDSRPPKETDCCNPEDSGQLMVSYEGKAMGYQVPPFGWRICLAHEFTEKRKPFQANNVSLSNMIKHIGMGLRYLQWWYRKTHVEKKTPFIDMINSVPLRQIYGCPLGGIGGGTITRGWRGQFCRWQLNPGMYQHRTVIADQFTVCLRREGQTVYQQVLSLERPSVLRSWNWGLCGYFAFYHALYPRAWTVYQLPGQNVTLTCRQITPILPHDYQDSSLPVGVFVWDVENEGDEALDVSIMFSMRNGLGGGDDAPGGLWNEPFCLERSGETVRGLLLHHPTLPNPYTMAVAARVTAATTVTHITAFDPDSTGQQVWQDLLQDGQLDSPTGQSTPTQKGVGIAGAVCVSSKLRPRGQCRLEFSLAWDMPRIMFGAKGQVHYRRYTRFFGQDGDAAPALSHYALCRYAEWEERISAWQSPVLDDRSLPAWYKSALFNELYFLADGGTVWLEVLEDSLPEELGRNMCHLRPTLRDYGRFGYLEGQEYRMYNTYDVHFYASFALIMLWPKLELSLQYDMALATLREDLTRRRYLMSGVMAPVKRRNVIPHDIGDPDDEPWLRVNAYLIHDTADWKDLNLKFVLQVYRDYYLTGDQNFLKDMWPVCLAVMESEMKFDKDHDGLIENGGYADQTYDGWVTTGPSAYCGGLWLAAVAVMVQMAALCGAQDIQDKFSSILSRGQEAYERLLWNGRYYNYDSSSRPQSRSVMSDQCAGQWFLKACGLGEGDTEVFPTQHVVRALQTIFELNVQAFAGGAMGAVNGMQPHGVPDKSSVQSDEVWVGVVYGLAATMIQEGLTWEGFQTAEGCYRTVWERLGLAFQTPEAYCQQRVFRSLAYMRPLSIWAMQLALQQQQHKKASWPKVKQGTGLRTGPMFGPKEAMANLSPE
Briefly: Non-lysosomal glucosylceramidase in intact human cells, C6-NBD-glucosylceramide substrate. The settings on record: read-out: Enzyme specificities, IC50: Non-lysosomal glucosylceramidase (GBA2). In kind it is cell-based. Here is the method: (§1) Non-lysosomal glucosylceramidase and lysosomal glucocerebrosidase were assayed in intact human cells using C6-NBD-glucosylceramide as substrate (see H. S. Overkleeft, et al. J. Biol. Chem. 273 (1998) 26522-26527, the entire teachings of which are incorporated herein by reference). Conduritol β epoxide (a specific inhibitor of lysosomal glucocerebrosidase) was used to differentiate lysosomal versus the non-lysosomal activity. Glucocerebrosidase activity was also measured by fluorescence-activated cell sorting (FACS). […] Cells were immediately chilled on ice and the fluorescence quantitated is above.

The target of data set [3] is T3, Lysosomal glucocerebrosidase (GBA1) (Homo sapiens, UniProt P04062).
T3 construct: endogenous in cells; K562 cells for the FACS assay
T3 sequence (P04062 40-536): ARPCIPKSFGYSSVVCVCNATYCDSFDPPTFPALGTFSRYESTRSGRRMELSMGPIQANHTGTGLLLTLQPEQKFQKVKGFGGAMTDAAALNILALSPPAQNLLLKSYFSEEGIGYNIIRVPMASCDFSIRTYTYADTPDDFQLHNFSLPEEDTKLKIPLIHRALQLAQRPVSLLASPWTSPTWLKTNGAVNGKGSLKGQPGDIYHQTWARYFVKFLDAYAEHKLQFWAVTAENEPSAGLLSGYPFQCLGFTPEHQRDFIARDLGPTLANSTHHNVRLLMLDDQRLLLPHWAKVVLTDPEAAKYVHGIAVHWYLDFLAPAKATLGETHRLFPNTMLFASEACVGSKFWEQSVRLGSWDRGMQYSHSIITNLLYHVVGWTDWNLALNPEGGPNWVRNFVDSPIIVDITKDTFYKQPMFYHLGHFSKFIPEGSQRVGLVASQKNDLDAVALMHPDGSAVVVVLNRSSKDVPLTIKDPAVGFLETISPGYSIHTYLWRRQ
As to the kind of experiment: Lysosomal glucocerebrosidase in intact human cells / FACS in K562 cells. In kind it is cell-based. Here is the method: as §1

For `CCCCCCCC(=O)N[C@H](CN1CCCC1)[C@H](O)c1ccc2c(c1)OCCO2` [Formula (I) Hemitartrate], the IC50 (in general, the midpoint of a concentration-inhibition curve) in the data set on GM1 in K562 cells (K562 cells, 72 h incubation, printed range 14-34 nM, read-out: mean IC50 for inhibiting the cell surface presentation of GM1) was 0.024 µM; with GM1 in K562 cells (Table 8, GM1 in K562 cells, read-out: Substrate inhibition potency (in vitro IC50)), about 0.024 µM; in data set [2], 1600 µM; in data set [3] (read-out: Enzyme specificities, IC50: Lysosomal glucocerebrosidase (GBA1)), over 2500 µM. The cellular toxicity entry in the data set on GM1 in K562 cells (K562 cells, up to the highest dose (0.6-1000 nM), 72 h) was “No overt cellular toxicity”. Besides, the “differential in concentration required to inhibit glucosylceramide synthase compared to any of the other enzymes tested” value in data set [1] is recorded as “approximately 40,000”. In addition, in data set [3] (at the effective dose), the “inhibition of glucocerebrosidase activity” value is “no measurable inhibition”. Moreover, the “inhibition of lysosomal glucocerebrosidase” value in data set [3] (up to the highest concentration of 2500 μM) is “no inhibition”.
